Positions of bridges follow the written chain, without caps; N, C: chain ends. Non-standard residues stand in square brackets, D forms with d. Residues, ends and D or L forms follow the SMILES beside them. Trp(6-Cl) = N[C@@H](Cc1c[nH]c2cc(Cl)ccc12)C(=O)O; Lys(Me2) = CN(C)CCCC[C@H](N)C(=O)O; R8 = C=CCCCCCC[C@@](C)(N)C(=O)O; Cba = N[C@@H](CC1CCC1)C(=O)O; S5 = C=CCCC[C@](C)(N)C(=O)O; Ahx = NCCCCCC(=O)O
Key:
[1] = target: T1, Mdm2 (1-125) (Homo sapiens, UniProt Q00987); assay: Mdm2 competitive fluorescence anisotropy assay (FAM-labeled 12/1 peptide displacement); assay type: binding; details: for Kd: read-out: Kd (apparent dissociation constant, competitive fluorescence anisotropy); on Kd (apparent dissociation constant, competitive fluorescence anisotropy): 250 nM MDM2
T1 construct: Purified MDM2 (1-125) protein was titrated against 50 nM carboxyfluorescein (FAM)-labeled; GST (N, cleaved yes); made in house; host or cells: E. coli BL21 DE3 (pGEX-6P-1)
T1 sequence (Q00987 1-125): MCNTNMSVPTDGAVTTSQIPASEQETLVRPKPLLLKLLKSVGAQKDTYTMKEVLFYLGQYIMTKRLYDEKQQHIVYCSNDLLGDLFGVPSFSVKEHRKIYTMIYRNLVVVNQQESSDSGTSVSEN

[2] = tested on: T22 p53 reporter cells; assay: p53 gene reporter assay (β-galactosidase) in T22 cells; assay type: cell-based, murine; details: for P53 Activation (T22 Cells), 0% FCS (p53ACT50 / EC50) / P53 Activation (T22 Cells), 10% FCS (p53ACT50 / EC50): 18 h, 1% DMSO, normalised to 25 µM Nutlin, 4 parameter fit to 10 point titration
Protocol: T22 cells, which were stably transfected with a p53 responsive β-galactosidase reporter, were seeded into a 96-well plate at a cell density of 8000 cells per well. Cells were also maintained in Dulbecco’s Minimal Eagle Medium (DMEM) with 10% fetal calf serum (FCS) and 1% (v/v) penicillin/streptomycin. The cells were incubated for 24 hours and followed by cell media removal and replacement with 90 µl of fresh DMEM either containing 10% FCS or 0% FCS. 10 µl of each compound was then added directly to each well and incubated for 18 hours. Final working concentration of DMSO was 1% v/v. […] Measurements were carried out using an Envision multiplate reader (Perkin-Elmer). […] This was then used to normalize the experimental results.

[3] = tested on: T22 cells; assay: Lactate dehydrogenase (LDH) release assay in T22 cells; assay type: cell-based, murine; details: for LDH Release (T22 Cells), 0% FCS (LDH50) / LDH Release (T22 Cells), 10% FCS (LDH50): 2 h treatment, normalised to 0.1% Triton X-100 lysis, 4 parameter fit to 10 point titration
Protocol: (§1) T22 cells or HEK 293 cells were seeded into a 96-well plate at a cell density of 5000 cells per well. Cells were maintained in Dulbecco’s Minimal Eagle Medium (DMEM) with 10% fetal bovine serum (FBS) and 1% (v/v) penicillin/streptomycin. The cells were incubated for 24 hours followed by cell media removal and addition of 90 µl of DMEM either with or without 10% FCS. Cells were then treated with compounds/peptide for 2 hours in DMEM with or without 10% FBS. Final working concentration of DMSO was 1% v/v. Corresponding negative control wells with 1% DMSO only were also prepared. Cytosolic lactate dehydrogenase release was detected using the cytoTox 96® non-radioactive cytotoxicity Assay kit (Promega) as per manufacturer’s instructions. Measurements were carried out using an Envision multiplate reader (Perkin-Elmer). Maximum LDH release was defined as the amount of LDH released when cells were lysed in the presence of 0.1% TRITON X-100 and was used to normalize the results.

[4] = tested on: HEK293 cells; assay: Lactate dehydrogenase (LDH) release assay in HEK293 cells; assay type: cell-based; details: 0% FCS, 2 hour treatment, 12.5, 25 and 50 µM, normalised to 0.1% Triton X100 (Figure S1)
Protocol: as §1, with “results. […]” for “results.”
to induce LDH release in HEK293 cells after a 2 hour treatment period in A) the absence of FCS and B) the presence of 10% FCS. Compounds were tested at concentrations of 12.5 µM, 25 µM and 50 µM. Results were normalized to maximal LDH release as measured by treatment with 0.1% Triton X100.
(1 picture or pasted object on this page, not shown here)

CC(=O)N[C@@H](CCCCN)C(=O)N[C@@H](CCCCN)C(=O)NCCCCCC(=O)N[C@H](C(=O)N[C@@H](CO)C(=O)N[C@@H](CC(C)C)C(=O)N[C@]1(C)CCCCCCC=CCCC[C@@](C)(C(=O)N[C@@H](CCC(=O)O)C(=O)N[C@@H](CC(N)=O)C(=O)N[C@@H](Cc2ccccc2)C(N)=O)NC(=O)[C@H](Cc2c[nH]c3ccccc23)NC(=O)[C@H](CC(C)C)NC(=O)[C@H](C)NC(=O)[C@H](Cc2ccccc2)NC(=O)[C@H](Cc2ccc(O)cc2)NC(=O)[C@H](CCC(=O)O)NC1=O)[C@@H](C)O [VIP-82^SCRAM] (Ac-KK[Ahx]TSL[R8]EYFALW[S5]ENF-NH2; staple 7-14)
binding against Mdm2 in the FA competition assay (in words) [1]: no binding
P53 Activation (T22 Cells), 0% FCS (p53ACT50 / EC50) [2]: No Activity
P53 Activation (T22 Cells), 10% FCS (p53ACT50 / EC50) [2]: No Activity
p53 activity, peptide formulated with SaintPhD (in words) ([2]; formulated with SaintPhD, conditions identical to VIP-82:SaintPhD (Figure S2)): did not induce any p53 activity or LDH release
LDH Release (T22 Cells), 0% FCS (LDH50) [3]: No Release
LDH Release (T22 Cells), 10% FCS (LDH50) [3]: No Release
LDH release, peptide formulated with SaintPhD (in words) ([3]; formulated with SaintPhD (Figure S2)): did not induce any p53 activity or LDH release

CC(=O)N[C@@H](CCCCN)C(=O)N[C@@H](CC(C)C)C(=O)N[C@@H](C)C(=O)N[C@@H](CCCCN)C(=O)NCCCCCC(=O)N[C@H](C(=O)N[C@@H](CO)C(=O)N[C@@H](Cc1ccccc1)C(=O)N[C@]1(C)CCCCCCC=CCCC[C@@](C)(C(=O)N[C@@H](CCC(=O)O)C(=O)N[C@@H](CC(N)=O)C(=O)N[C@@H](Cc2ccccc2)C(N)=O)NC(=O)[C@H](CC(C)C)NC(=O)[C@H](CC(C)C)NC(=O)[C@H](C)NC(=O)[C@H](Cc2c[nH]c3ccccc23)NC(=O)[C@H](Cc2ccc(O)cc2)NC(=O)[C@H](CCC(=O)O)NC1=O)[C@@H](C)O [VIP-129] (Ac-KLAK[Ahx]TSF[R8]EYWALL[S5]ENF-NH2; staple 9-16)
Kd [1]: 9.1 ± 1 nM

CC(=O)N[C@@H](CCCCN(C)C)C(=O)N[C@@H](CCCCN(C)C)C(=O)NCCCCCC(=O)N[C@H](C(=O)N[C@@H](CO)C(=O)N[C@@H](Cc1ccccc1)C(=O)N[C@]1(C)CCCCCCC=CCCC[C@@](C)(C(=O)N[C@@H](CCC(=O)O)C(=O)N[C@@H](CC(N)=O)C(=O)N[C@@H](Cc2ccccc2)C(N)=O)NC(=O)[C@H](CC(C)C)NC(=O)[C@H](CC(C)C)NC(=O)[C@H](C)NC(=O)[C@H](Cc2c[nH]c3ccccc23)NC(=O)[C@H](Cc2ccc(O)cc2)NC(=O)[C@H](CCC(=O)O)NC1=O)[C@@H](C)O [VIP-131] (Ac-[Lys(Me2)][Lys(Me2)][Ahx]TSF[R8]EYWALL[S5]ENF-NH2; staple 7-14)
Kd [1]: 25.6 ± 2.6 nM

CC(=O)N[C@H](CCCCN)C(=O)NCCCCCC(=O)N[C@H](C(=O)N[C@@H](CO)C(=O)N[C@@H](Cc1ccccc1)C(=O)N[C@]1(C)CCCCCCC=CCCC[C@@](C)(C(=O)N[C@@H](CCC(=O)O)C(=O)N[C@@H](CC(N)=O)C(=O)N[C@@H](Cc2ccccc2)C(N)=O)NC(=O)[C@H](CC(C)C)NC(=O)[C@H](CC(C)C)NC(=O)[C@H](C)NC(=O)[C@H](Cc2c[nH]c3ccccc23)NC(=O)[C@H](Cc2ccc(O)cc2)NC(=O)[C@H](CCC(=O)O)NC1=O)[C@@H](C)O [VIP-132]
Kd [1]: 8 ± 0.8 nM

CC(=O)N[C@H](CCCCN)C(=O)N[C@H](CCCCN)C(=O)NCCCCCC(=O)N[C@H](C(=O)N[C@@H](CO)C(=O)N[C@@H](Cc1ccccc1)C(=O)N[C@]1(C)CCCCCCC=CCCC[C@@](C)(C(=O)N[C@@H](CCC(=O)O)C(=O)N[C@@H](CC(N)=O)C(=O)N[C@@H](Cc2ccccc2)C(N)=O)NC(=O)[C@H](CC(C)C)NC(=O)[C@H](CC(C)C)NC(=O)[C@H](C)NC(=O)[C@H](Cc2c[nH]c3ccccc23)NC(=O)[C@H](Cc2ccc(O)cc2)NC(=O)[C@H](CCC(=O)O)NC1=O)[C@@H](C)O [VIP-133] (Ac-[dK][dK][Ahx]TSF[R8]EYWALL[S5]ENF-NH2; staple 7-14)
Kd [1]: 10 ± 1 nM

CC(=O)N[C@H](CCCCN)C(=O)N[C@H](CCCCN)C(=O)N[C@H](CCCCN)C(=O)NCCCCCC(=O)N[C@H](C(=O)N[C@@H](CO)C(=O)N[C@@H](Cc1ccccc1)C(=O)N[C@]1(C)CCCCCCC=CCCC[C@@](C)(C(=O)N[C@@H](CCC(=O)O)C(=O)N[C@@H](CC(N)=O)C(=O)N[C@@H](Cc2ccccc2)C(N)=O)NC(=O)[C@H](CC(C)C)NC(=O)[C@H](CC(C)C)NC(=O)[C@H](C)NC(=O)[C@H](Cc2c[nH]c3ccccc23)NC(=O)[C@H](Cc2ccc(O)cc2)NC(=O)[C@H](CCC(=O)O)NC1=O)[C@@H](C)O [VIP-134] (Ac-[dK][dK][dK][Ahx]TSF[R8]EYWALL[S5]ENF-NH2; staple 8-15)
Kd [1]: 6.2 ± 0.9 nM

CC(=O)N[C@H](C(=O)N[C@@H](CO)C(=O)N[C@@H](Cc1ccccc1)C(=O)N[C@]1(C)CCCCCCC=CCCC[C@@](C)(C(=O)N[C@@H](CCC(=O)O)C(N)=O)NC(=O)[C@H](CC(C)C)NC(=O)[C@H](CC(C)C)NC(=O)[C@H](C)NC(=O)[C@H](Cc2c[nH]c3cc(Cl)ccc23)NC(=O)[C@H](Cc2ccc(O)cc2)NC(=O)[C@H](CCC(=O)O)NC1=O)[C@@H](C)O [VIP-137]
Kd [1]: < 1 nM

CC(=O)N[C@H](C(=O)N[C@@H](CO)C(=O)N[C@@H](Cc1ccccc1)C(=O)N[C@]1(C)CCCCCCC=CCCC[C@@](C)(C(=O)N[C@@H](CCC(=O)O)C(N)=O)NC(=O)[C@H](CC2CCC2)NC(=O)[C@H](CC(C)C)NC(=O)[C@H](C)NC(=O)[C@H](Cc2c[nH]c3cc(Cl)ccc23)NC(=O)[C@H](Cc2ccc(O)cc2)NC(=O)[C@H](CCC(=O)O)NC1=O)[C@@H](C)O [VIP-138] (Ac-TSF[R8]EY[Trp(6-Cl)]AL[Cba][S5]E-NH2; staple 4-11)
Kd [1]: < 1 nM

CC(C)C[C@@H]1NC(=O)[C@H](C)NC(=O)[C@H](Cc2c[nH]c3ccccc23)NC(=O)[C@H](Cc2ccc(O)cc2)NC(=O)[C@H](CCC(=O)O)NC(=O)[C@](C)(NC(=O)[C@H](Cc2ccccc2)NC(=O)[C@H](CO)NC(=O)[C@@H](NC(=O)CNC(=O)[C@H](CO)NC(=O)CNC(=O)[C@H](CO)NC(=O)CCCC[C@@H]2SC[C@@H]3NC(=O)N[C@@H]32)[C@@H](C)O)CCCCCCC=CCCC[C@@](C)(C(N)=O)NC(=O)[C@H](CC(C)C)NC1=O [VIP-150]
Kd [1]: 54.2 ± 5.9 nM

CC(=O)N[C@@H](CCCCN)C(=O)N[C@@H](CCCCN)C(=O)N[C@@H](CO)C(=O)NCC(=O)N[C@@H](CO)C(=O)NCC(=O)N[C@H](C(=O)N[C@@H](CO)C(=O)N[C@@H](Cc1ccccc1)C(=O)N[C@]1(C)CCCCCCC=CCCC[C@@](C)(C(N)=O)NC(=O)[C@H](CC(C)C)NC(=O)[C@H](CC(C)C)NC(=O)[C@H](C)NC(=O)[C@H](Cc2c[nH]c3ccccc23)NC(=O)[C@H](Cc2ccc(O)cc2)NC(=O)[C@H](CCC(=O)O)NC1=O)[C@@H](C)O [VIP-151] (Ac-KKSGSGTSF[R8]EYWALL[S5]-NH2; staple 10-17)
Kd [1]: 33.6 ± 5.6 nM

CC(=O)N[C@H](C(=O)N[C@@H](CO)C(=O)N[C@@H](CC(C)C)C(=O)N[C@]1(C)CCCCCCC=CCCC[C@@](C)(C(N)=O)NC(=O)[C@H](Cc2c[nH]c3ccccc23)NC(=O)[C@H](CC(C)C)NC(=O)[C@H](C)NC(=O)[C@H](Cc2ccccc2)NC(=O)[C@H](Cc2ccc(O)cc2)NC(=O)[C@H](CCC(=O)O)NC1=O)[C@@H](C)O [sMTIDE-02^SCRAM] (Ac-TSL[R8]EYFALW[S5]-NH2; staple 4-11)
binding against Mdm2 in the FA competition assay (in words) [1]: no binding
LDH release in HEK293 cells, absence of serum (in words) [4]: induced significant amounts of LDH release
P53 Activation (T22 Cells), 0% FCS (p53ACT50 / EC50) [2]: No Activity
P53 Activation (T22 Cells), 10% FCS (p53ACT50 / EC50) [2]: No Activity
LDH Release (T22 Cells), 0% FCS (LDH50) [3]: 25.1 ± 2.8 µM
LDH Release (T22 Cells), 10% FCS (LDH50) [3]: 105 ± 8.0 µM

Reference: publication PMC5431883, “Enhancing Specific Disruption of Intracellular Protein Complexes by Hydrocarbon Stapled Peptides Using Lipid Based Delivery” (Scientific Reports, 2017)
